This note sets out measurements from PubChem BioAssay (NCI).

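Growth conditions: 96-well plates. Treatment: test compound, 48 hours, 5 concentrations. Analysis: linear interpolation between bracketing concentrations; unreached endpoints set to highest concentration. TGI is the concentration that stops growth completely.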 Some results are limits rather than exact numbers.

Test systems include 786-0 renal; A498 renal; ACHN renal; CAKI-1 renal; COLO 205 colon; HCC-2998 colon; HCT-15 colon; HS 578T breast; KM12 colon; LOX IMVI melanoma; MOLT-4 leukemia; NCI-H226 lung; OVCAR-4 ovarian; PC-3 prostate; RPMI-8226 leukemia; SK-MEL-2 melanoma; SK-MEL-28 melanoma; SNB-19 CNS; SNB-75 CNS.
Common to all, as to test: NCI anticancer screen, dose series, 48 h

For the compound `O=[N+]([O-])/C(C(Cl)=C(Cl)Cl)=C(/Cl)Sc1ccccc1`, the TGI worked out at 2.62 µM in the assay on 786-0 renal; 4.19 µM in the assay with A498 renal; 3.93 µM with ACHN renal; 6.57 µM with CAKI-1 renal; 2.75 µM in the assay with COLO 205 colon; 5.7 µM with HCC-2998 colon. In addition, the TGI in the assay with HCT-15 colon turned out to be 4.85 µM; with HS 578T breast, 7.14 µM; with KM12 colon it was 32 µM; in the assay with LOX IMVI melanoma it was 3.65 µM; in the assay on MOLT-4 leukemia, 1.23 µM; with NCI-H226 lung it was 24.3 µM. For the same compound, the TGI with OVCAR-4 ovarian was 3.75 µM; in the assay on PC-3 prostate, 4.66 µM; in the assay on RPMI-8226 leukemia, 1.15 µM; in the assay on SK-MEL-2 melanoma, 27.4 µM; in the assay on SK-MEL-28 melanoma, 3.28 µM; in the assay on SNB-19 CNS, 36 µM. In the assay on SNB-75 CNS, this compound came in with a TGI of 28.8 µM.
As to `CSc1ncnc2c1ncn2CCC(=O)OC(C)(C)C`, the TGI in the assay on 786-0 renal, with A498 renal, with ACHN renal, in the assay with CAKI-1 renal, in the assay with COLO 205 colon and in the assay with HCC-2998 colon was greater than 100 µM in each case. Moreover, the TGI in the assay on KM12 colon, in the assay on LOX IMVI melanoma, in the assay with MOLT-4 leukemia, in the assay with NCI-H226 lung, in the assay on OVCAR-4 ovarian and with PC-3 prostate was greater than 100 µM throughout. In addition, the TGI with RPMI-8226 leukemia, with SK-MEL-28 melanoma, with SNB-19 CNS and in the assay with SNB-75 CNS was greater than 100 µM in each case.
As to `CN(C)CCC(=O)c1ccccc1`, the TGI with 786-0 renal was 44.2 µM; in the assay with A498 renal, greater than 95.5 µM; in the assay with ACHN renal it was greater than 69.2 µM; in the assay with CAKI-1 renal, 40.5 µM; with COLO 205 colon, greater than 57.2 µM; in the assay on HCC-2998 colon, greater than 69.6 µM. Further, the TGI is 46.9 µM in the assay with HCT-15 colon; greater than 61.4 µM in the assay on KM12 colon; 57.8 µM with LOX IMVI melanoma; 59.9 µM in the assay with MOLT-4 leukemia; 98.4 µM in the assay on NCI-H226 lung; greater than 74.1 µM with OVCAR-4 ovarian. For the same compound, the TGI in the assay with RPMI-8226 leukemia was greater than 100 µM; in the assay with SK-MEL-2 melanoma, greater than 84.4 µM; with SK-MEL-28 melanoma, greater than 67.4 µM; with SNB-19 CNS it was greater than 100 µM; in the assay with SNB-75 CNS, greater than 71 µM.
Take `CN(CC(=O)O)c1ncc2c(n1)CCCC2`: the TGI with 786-0 renal, in the assay with A498 renal, in the assay with ACHN renal, in the assay with CAKI-1 renal, with COLO 205 colon and in the assay on HCT-15 colon was greater than 100 µM each time. Moreover, the TGI in the assay on HS 578T breast, in the assay on KM12 colon, in the assay on LOX IMVI melanoma, in the assay on MOLT-4 leukemia, with NCI-H226 lung and with OVCAR-4 ovarian was greater than 100 µM throughout. Moreover, the TGI with PC-3 prostate, in the assay on RPMI-8226 leukemia, in the assay with SK-MEL-2 melanoma, in the assay with SK-MEL-28 melanoma, in the assay on SNB-19 CNS and in the assay on SNB-75 CNS was greater than 100 µM throughout.
Regarding `CN=C1CC2c3cc(OC)c(OC)cc3CCN2C2=C1C(=O)CC(C)(C)C2` (stereo not given), the TGI with 786-0 renal, in the assay on A498 renal, with ACHN renal, in the assay with CAKI-1 renal, in the assay with COLO 205 colon and in the assay on HCC-2998 colon was greater than 100 µM each time. Moreover, the TGI in the assay with KM12 colon, with LOX IMVI melanoma, in the assay on MOLT-4 leukemia, with NCI-H226 lung, in the assay with SK-MEL-2 melanoma and with SK-MEL-28 melanoma was greater than 100 µM in each case. The TGI with SNB-19 CNS and in the assay on SNB-75 CNS was greater than 100 µM throughout.
Turning to `Cc1ccc(-n2c(N)c(C#N)c3[nH]nc(N)c3c2=O)cc1`, the TGI in the assay on 786-0 renal, in the assay with A498 renal, with ACHN renal, in the assay on CAKI-1 renal, in the assay on COLO 205 colon and with HCC-2998 colon was greater than 100 µM in each case. Moreover, the TGI with HCT-15 colon, in the assay on HS 578T breast, in the assay with KM12 colon, in the assay with LOX IMVI melanoma, in the assay on MOLT-4 leukemia and in the assay on NCI-H226 lung was greater than 100 µM each time. Besides, the TGI in the assay on OVCAR-4 ovarian, in the assay on PC-3 prostate, in the assay on RPMI-8226 leukemia, in the assay with SK-MEL-2 melanoma, with SK-MEL-28 melanoma and in the assay with SNB-19 CNS was greater than 100 µM in each case. Further, the TGI in the assay on SNB-75 CNS was greater than 100 µM.
With `Cn1c(=O)n(C2(C)C[Se]C2)c2ccccc21`, the TGI in the assay with 786-0 renal, with A498 renal, in the assay on ACHN renal, with CAKI-1 renal, in the assay on COLO 205 colon and with HCC-2998 colon was greater than 100 µM throughout. Further, the TGI in the assay on HCT-15 colon, in the assay with KM12 colon, in the assay with LOX IMVI melanoma, in the assay on MOLT-4 leukemia, in the assay with NCI-H226 lung and with OVCAR-4 ovarian was greater than 100 µM each time. The TGI with RPMI-8226 leukemia, with SK-MEL-2 melanoma, in the assay with SK-MEL-28 melanoma, in the assay on SNB-19 CNS and in the assay on SNB-75 CNS was greater than 100 µM throughout.
With `COc1ccc(P2(=S)OC(C)(C)C(C)(C)O2)cc1`, the TGI in the assay with 786-0 renal, with ACHN renal, with CAKI-1 renal, in the assay on HCT-15 colon, in the assay with HS 578T breast and in the assay on KM12 colon was greater than 100 µM in each case. For the same compound, the TGI with LOX IMVI melanoma, with MOLT-4 leukemia, with NCI-H226 lung, with OVCAR-4 ovarian, with PC-3 prostate and in the assay with SK-MEL-2 melanoma was greater than 100 µM throughout. Also, the TGI in the assay on SK-MEL-28 melanoma, in the assay on SNB-19 CNS and with SNB-75 CNS was greater than 100 µM in each case.
